PubChem BioAssay AID248 (DTP/NCI, 2004)
Where “and” joins values, the source holds several entries; their conditions need not be identical. Equal values may be shown once. Inconclusive results and toxic doses are left out.

System: L1210 leukemia ip in BDF1 mice, survival T/C
Experiment: NCI In Vivo Anticancer Drug Screen. Data for tumor model L1210 Leukemia (intraperitoneal) in B6D2F1 (BDF1) mice
Settings: endpoint: mean survival time, higher = longer survival
Method in brief: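 Transplantable tumor model; survival measured in treated vs vehicle control mice. Value = treated/control.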

[1] = dose: 100.0 mg/kg/injection, schedule: Q01DX001 (ip), vehicle: saline
[2] = dose: 50.0 mg/kg/injection, schedule: Q01DX009 (ip), vehicle: saline with Tween-80
[3] = dose: 100.0 mg/kg/injection, schedule: Q01DX009 (ip), vehicle: other
[4] = dose: 100.0 mg/kg/injection, schedule: Q01DX009 (ip), vehicle: saline with Tween-80
[5] = dose: 100.0 mg/kg/injection, schedule: Q04DX003 (ip), vehicle: other
[6] = dose: 200.0 mg/kg/injection, schedule: Q01DX009 (ip), vehicle: saline with Tween-80
[7] = dose: 200.0 mg/kg/injection, schedule: Q04DX003 (ip), vehicle: other
[8] = dose: 400.0 mg/kg/injection, schedule: Q01DX009 (ip), vehicle: other
[9] = dose: 400.0 mg/kg/injection, schedule: Q01DX009 (ip), vehicle: saline with Tween-80
[10] = dose: 50.0 mg/kg/injection, schedule: Q04DX002 (ip), vehicle: saline
[11] = dose: 100.0 mg/kg/injection, schedule: Q04DX002 (ip), vehicle: saline
[12] = dose: 200.0 mg/kg/injection, schedule: Q04DX002 (ip), vehicle: saline
[13] = dose: 400.0 mg/kg/injection, schedule: Q04DX002 (ip), vehicle: saline
[14] = dose: 400.0 mg/kg/injection, schedule: Q04DX003 (ip), vehicle: other
[15] = dose: 100.0 mg/kg/injection, schedule: Q01DX009 (ip), vehicle: saline
[16] = dose: 100.0 mg/kg/injection, schedule: Q04DX003 (ip), vehicle: saline
[17] = dose: 200.0 mg/kg/injection, schedule: Q04DX003 (ip), vehicle: saline
[18] = dose: 400.0 mg/kg/injection, schedule: Q04DX003 (ip), vehicle: saline
[19] = dose: 100.0 mg/kg/injection, schedule: Q01DX009 (ip), vehicle: Klucel (hydroxypropylcellulose) (HPC)
[20] = dose: 200.0 mg/kg/injection, schedule: Q01DX009 (ip), vehicle: Klucel (hydroxypropylcellulose) (HPC)

## CCOC(=O)CNCc1cccc(Br)c1
dose: 50.0 mg/kg/injection, schedule: Q01DX005 (ip), vehicle: saline
  T/C: 98 % of control
dose: 100.0 mg/kg/injection, schedule: Q01DX005 (ip), vehicle: saline
  T/C: 112 % of control
dose: 200.0 mg/kg/injection, schedule: Q01DX005 (ip), vehicle: saline
  T/C: 102 % of control
dose: 400.0 mg/kg/injection, schedule: Q01DX005 (ip), vehicle: saline
  T/C: 100 % of control

## CCOP(=O)(OCC)Oc1ccc(Sc2ccc(OP(=O)(OCC)OCC)cc2)cc1
[1]
  T/C: 108 % of control

## CCOC(=O)C(Cc1ccc(N(CCCl)CCCl)cc1)NP1(=O)NCCCO1 (stereo unspecified)
dose: 2.0 mg/kg/injection, schedule: Q01DX015 (ip), vehicle: carboxymethylcellulose (CMC)
  T/C: 123 % of control
dose: 14.0 mg/kg/injection, schedule: Q01DX015 (ip), vehicle: carboxymethylcellulose (CMC)
  T/C: 92 % of control
dose: 18.0 mg/kg/injection, schedule: Q01DX015 (ip), vehicle: other
  T/C: 167 % of control
dose: 28.14 mg/kg/injection, schedule: Q01DX015 (ip), vehicle: carboxymethylcellulose (CMC)
  T/C: 117 % of control
dose: 30.0 mg/kg/injection, schedule: Q01DX015 (ip), vehicle: other
  T/C: 156 % of control
dose: 48.0 mg/kg/injection, schedule: Q01DX015 (ip), vehicle: carboxymethylcellulose (CMC)
  T/C: 94 % of control
dose: 50.0 mg/kg/injection, schedule: Q01DX015 (ip), vehicle: other
  T/C: 109 % of control
dose: 100.0 mg/kg/injection, schedule: Q01DX001 (ip), vehicle: carboxymethylcellulose (CMC)
  T/C: 111 % of control
dose: 100.0 mg/kg/injection, schedule: Q01DX001 (ip), vehicle: other
  T/C: 160 % of control
dose: 400.0 mg/kg/injection, schedule: Q01DX001 (ip), vehicle: carboxymethylcellulose (CMC)
  T/C: 115 % of control

## Cc1cc2nc3c(nc2cc1C)C1CC(Br)CCC1N3 (stereo unspecified)
[1]
  T/C: 97 % of control
dose: 200.0 mg/kg/injection, schedule: Q01DX001 (ip), vehicle: saline
  T/C: 95 % of control
dose: 400.0 mg/kg/injection, schedule: Q01DX001 (ip), vehicle: saline
  T/C: 91 % of control

## COc1cc2c(cc1OC)-c1cc3ccc(OC)c(OC)c3c[n+]1CC2
dose: 6.25 mg/kg/injection, schedule: Q04DX003 (ip), vehicle: saline
  T/C: 105 % of control
dose: 12.5 mg/kg/injection, schedule: Q04DX003 (ip), vehicle: saline
  T/C: 101 % of control
dose: 25.0 mg/kg/injection, schedule: Q04DX003 (ip), vehicle: saline
  T/C: 103 % of control

## COc1ccc([N+](=O)[O-])cc1NS(=O)(=O)c1ccc(Cl)c([N+](=O)[O-])c1
[2]
  T/C: 95 % of control and 90 % of control
dose: 50.0 mg/kg/injection, schedule: Q04DX003 (ip), vehicle: other
  T/C: 97 % of control
[3]
  T/C: 105 % of control
[4]
  T/C: 93 % of control and 106 % of control
dose: 100.0 mg/kg/injection, schedule: Q04DX002 (ip), vehicle: other
  T/C: 107 % of control and 113 % of control
[5]
  T/C: 96 % of control
[6]
  T/C: 95 % of control
dose: 200.0 mg/kg/injection, schedule: Q04DX002 (ip), vehicle: other
  T/C: 96 % of control and 102 % of control
[7]
  T/C: 89 % of control
[8]
  T/C: 87 % of control
[9]
  T/C: 95 % of control
dose: 400.0 mg/kg/injection, schedule: Q04DX002 (ip), vehicle: other
  T/C: 101 % of control and 102 % of control

## c1ccc(CNCc2ccc(CNCc3ccccc3)cc2)cc1
dose: 100.0 mg/kg/injection, schedule: Q04DX003 (ip), vehicle: saline with Tween-80
  T/C: 93 % of control
dose: 200.0 mg/kg/injection, schedule: Q04DX003 (ip), vehicle: saline with Tween-80
  T/C: 97 % of control
dose: 400.0 mg/kg/injection, schedule: Q04DX003 (ip), vehicle: saline with Tween-80
  T/C: 98 % of control

## Cc1c(Cl)cccc1NC(=O)COc1ccc(Cl)cc1Cl
[4]
  T/C: 88 % of control
[6]
  T/C: 93 % of control
[9]
  T/C: 98 % of control

## CCOC(=O)CC1COC(=O)C1C(=O)OCC (stereo unspecified)
dose: 12.5 mg/kg/injection, schedule: Q01DX009 (ip), vehicle: saline with Tween-80
  T/C: 105 % of control
dose: 25.0 mg/kg/injection, schedule: Q01DX009 (ip), vehicle: saline with Tween-80
  T/C: 105 % of control and 120 % of control
[2]
  T/C: 95 % of control
[4]
  T/C: 98 % of control and 122 % of control
[6]
  T/C: 118 % of control
[9]
  T/C: 106 % of control

## CN(C)CCOC(=O)c1cccc(CCl)c1
dose: 45.0 mg/kg/injection, schedule: Q04DX002 (ip), vehicle: saline
  T/C: 106 % of control
[10]
  T/C: 98 % of control
dose: 65.0 mg/kg/injection, schedule: Q04DX002 (ip), vehicle: saline
  T/C: 97 % of control
[11]
  T/C: 97 % of control and 102 % of control
dose: 150.0 mg/kg/injection, schedule: Q04DX002 (ip), vehicle: saline
  T/C: 91 % of control
[12]
  T/C: 94 % of control and 88 % of control
[13]
  T/C: 106 % of control

## C/C(=C\CN1C(=O)CCCC1=O)CCC(=O)O
[3]
  T/C: 90 % of control
[5]
  T/C: 102 % of control
dose: 200.0 mg/kg/injection, schedule: Q01DX009 (ip), vehicle: other
  T/C: 98 % of control
[7]
  T/C: 91 % of control
[8]
  T/C: 93 % of control
[14]
  T/C: 93 % of control

## O=C(O)CCCCCNC(=O)C(F)(F)F
[5]
  T/C: 94 % of control
[7]
  T/C: 103 % of control
[14]
  T/C: 87 % of control

## CCOC(=O)COc1cc(N)c(Cl)cc1Cl
dose: 100.0 mg/kg/injection, schedule: Q04DX002 (ip), vehicle: gum acacia
  T/C: 95 % of control
dose: 200.0 mg/kg/injection, schedule: Q04DX002 (ip), vehicle: gum acacia
  T/C: 95 % of control
dose: 400.0 mg/kg/injection, schedule: Q04DX002 (ip), vehicle: gum acacia
  T/C: 92 % of control

## CC(NC(=O)C(F)(F)F)C(=O)O (stereo unspecified)
[15]
  T/C: 92 % of control
[16]
  T/C: 103 % of control
dose: 200.0 mg/kg/injection, schedule: Q01DX009 (ip), vehicle: saline
  T/C: 95 % of control
[17]
  T/C: 93 % of control
dose: 400.0 mg/kg/injection, schedule: Q01DX009 (ip), vehicle: saline
  T/C: 113 % of control
[18]
  T/C: 97 % of control

## COC(=O)C1C=CCC2C(=O)C=C(C)C(=O)C12C (stereo unspecified)
[19]
  T/C: 94 % of control
dose: 100.0 mg/kg/injection, schedule: Q04DX003 (ip), vehicle: Klucel (hydroxypropylcellulose) (HPC)
  T/C: 96 % of control
[20]
  T/C: 92 % of control
dose: 200.0 mg/kg/injection, schedule: Q04DX003 (ip), vehicle: Klucel (hydroxypropylcellulose) (HPC)
  T/C: 100 % of control
dose: 400.0 mg/kg/injection, schedule: Q01DX009 (ip), vehicle: Klucel (hydroxypropylcellulose) (HPC)
  T/C: 97 % of control
dose: 400.0 mg/kg/injection, schedule: Q04DX003 (ip), vehicle: Klucel (hydroxypropylcellulose) (HPC)
  T/C: 96 % of control

## CCN(CC)CCCC(C)Nc1cccc2c1C(=O)c1ccccc1C2=O (stereo unspecified)
dose: 25.0 mg/kg/injection, schedule: Q01DX009 (ip), vehicle: saline
  T/C: 100 % of control
dose: 25.0 mg/kg/injection, schedule: Q04DX002 (ip), vehicle: saline
  T/C: 95 % of control
dose: 50.0 mg/kg/injection, schedule: Q01DX009 (ip), vehicle: saline
  T/C: 93 % of control
[10]
  T/C: 92 % of control
[15]
  T/C: 93 % of control
[11]
  T/C: 100 % of control and 92 % of control

## CNC1C(OC2C(OC)OC(C)C2(O)CO)OC(CO)C(O)C1O (stereo unspecified)
[16]
  T/C: 110 % of control
[17]
  T/C: 97 % of control
[18]
  T/C: 97 % of control

## CCOC(=O)C(=CNc1cccc2cnccc12)C(=O)OCC
[2]
  T/C: 91 % of control
[4]
  T/C: 88 % of control
[6]
  T/C: 88 % of control

## O=C(Nc1ccc([As](=O)(O)O)cc1)Nc1cccc(Cl)c1Cl
[19]
  T/C: 100 % of control
dose: 100.0 mg/kg/injection, schedule: Q04DX002 (ip), vehicle: Klucel (hydroxypropylcellulose) (HPC)
  T/C: 100 % of control
[20]
  T/C: 100 % of control
dose: 200.0 mg/kg/injection, schedule: Q04DX002 (ip), vehicle: Klucel (hydroxypropylcellulose) (HPC)
  T/C: 92 % of control
dose: 400.0 mg/kg/injection, schedule: Q04DX002 (ip), vehicle: Klucel (hydroxypropylcellulose) (HPC)
  T/C: 110 % of control

## CCOCCOCCOC(C)Oc1ccc(Br)cc1 (stereo unspecified)
[11]
  T/C: 103 % of control
[12]
  T/C: 103 % of control
[13]
  T/C: 100 % of control
